Results reported in ChEMBL document CHEMBL1144238, “Identification and SAR around N-{2-[4-(2,3-dihydro-benzo[1,4]dioxin-2-ylmethyl)-[1,4]diazepan-1-yl]-ethyl}-2-phenoxy-nicotinamide, a selective alpha2C adrenergic receptor antagonist” (Bioorg Med Chem Lett, 2008).

Assays:
Homo sapiens [1] = species: Homo sapiens; assay: Selectivity for human recombinant adrenergic Alpha-2C receptor over human recombinant adrenergic alpha2B receptor by radioligand binding assay
Homo sapiens [2] = species: Homo sapiens; assay: Selectivity for human recombinant adrenergic Alpha-2C receptor over human recombinant adrenergic alpha2A receptor by radioligand binding assay
[3] = biological target: T1, Alpha-2B adrenergic receptor (Homo sapiens, UniProt P18089); assay: Binding affinity at human recombinant adrenergic alpha2B receptor expressed in CHO cells by radioligand binding assay; type: cell-based
T1 sequence (P18089 whole entry): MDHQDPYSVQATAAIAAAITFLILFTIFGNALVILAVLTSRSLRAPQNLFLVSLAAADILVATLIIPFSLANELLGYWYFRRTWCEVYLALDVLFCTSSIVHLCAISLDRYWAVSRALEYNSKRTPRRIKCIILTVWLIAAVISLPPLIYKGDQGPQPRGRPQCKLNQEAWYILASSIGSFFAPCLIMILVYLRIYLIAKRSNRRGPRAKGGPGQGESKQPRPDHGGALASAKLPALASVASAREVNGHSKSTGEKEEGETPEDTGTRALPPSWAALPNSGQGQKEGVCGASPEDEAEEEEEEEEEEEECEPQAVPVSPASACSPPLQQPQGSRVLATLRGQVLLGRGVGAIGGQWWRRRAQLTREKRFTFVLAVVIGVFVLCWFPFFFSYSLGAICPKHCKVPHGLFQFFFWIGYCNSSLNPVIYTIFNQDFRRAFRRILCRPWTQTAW

[4] = biological target: T2, Alpha-2C adrenergic receptor (Homo sapiens, UniProt P18825); assay: Binding affinity at human recombinant adrenergic Alpha-2C receptor expressed in CHO cells by radioligand binding assay; type: cell-based
T2 sequence (P18825 whole entry): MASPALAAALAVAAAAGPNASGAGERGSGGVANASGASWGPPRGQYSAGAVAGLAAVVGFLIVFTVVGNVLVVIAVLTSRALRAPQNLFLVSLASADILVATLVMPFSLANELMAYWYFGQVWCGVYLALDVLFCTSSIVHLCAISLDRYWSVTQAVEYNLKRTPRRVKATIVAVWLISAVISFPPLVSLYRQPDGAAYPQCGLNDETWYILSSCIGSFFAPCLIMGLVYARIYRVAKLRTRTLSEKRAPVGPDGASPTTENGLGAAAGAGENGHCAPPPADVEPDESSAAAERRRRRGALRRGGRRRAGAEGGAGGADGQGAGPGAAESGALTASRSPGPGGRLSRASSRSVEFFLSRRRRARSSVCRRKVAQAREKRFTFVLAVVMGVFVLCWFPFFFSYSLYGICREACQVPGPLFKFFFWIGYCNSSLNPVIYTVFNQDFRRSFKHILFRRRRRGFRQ

[5] = biological target: T3, Alpha-2A adrenergic receptor (Homo sapiens, UniProt P08913); assay: Binding affinity at human recombinant adrenergic alpha2A receptor expressed in CHO cells by radioligand binding assay; type: cell-based
T3 sequence (P08913 whole entry): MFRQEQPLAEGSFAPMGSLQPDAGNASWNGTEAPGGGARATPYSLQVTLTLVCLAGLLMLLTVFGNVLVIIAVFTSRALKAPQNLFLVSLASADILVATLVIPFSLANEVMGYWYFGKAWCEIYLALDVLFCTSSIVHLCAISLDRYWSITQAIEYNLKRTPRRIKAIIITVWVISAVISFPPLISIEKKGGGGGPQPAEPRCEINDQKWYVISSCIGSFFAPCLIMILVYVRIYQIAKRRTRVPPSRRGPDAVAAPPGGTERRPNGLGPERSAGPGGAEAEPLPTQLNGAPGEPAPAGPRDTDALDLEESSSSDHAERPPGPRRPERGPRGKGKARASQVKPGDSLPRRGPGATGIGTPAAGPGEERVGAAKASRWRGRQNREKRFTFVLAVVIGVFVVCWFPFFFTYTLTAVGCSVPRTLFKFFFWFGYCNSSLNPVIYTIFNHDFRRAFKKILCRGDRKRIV

[6] = biological target: T3, Alpha-2A adrenergic receptor; assay: Antagonist activity at human recombinant adrenergic alpha2A receptor expressed in CHO cells assessed as inhibition of NE-induced calcium mobilization by FLIPR; type: functional, cell-based
[7] = biological target: T2, Alpha-2C adrenergic receptor; assay: Antagonist activity at human recombinant adrenergic Alpha-2C receptor expressed in CHO cells assessed as inhibition of NE-induced calcium mobilization by FLIPR; type: functional, cell-based
[8] = biological target: T1, Alpha-2B adrenergic receptor; assay: Antagonist activity at human recombinant adrenergic alpha2B receptor expressed in CHO cells assessed as inhibition of NE-induced calcium mobilization by FLIPR; type: functional, cell-based
Homo sapiens [9] = species: Homo sapiens; assay: Selectivity human recombinant adrenergic Alpha-2C receptor over human recombinant adrenergic alpha2A receptor by FLIPR
Homo sapiens [10] = species: Homo sapiens; assay: Selectivity human recombinant adrenergic Alpha-2C receptor over human recombinant adrenergic alpha2B receptor by FLIPR

Compound | Ratio Ki (Homo sapiens [1]) | Ratio Ki (Homo sapiens [2]) | Ki [3] [nM] | Ki [4] [nM] | Ki [5] [nM] | Ki [6] [nM] | Ki [7] [nM] | Ki [8] [nM] | Ratio Ki (Homo sapiens [9]) | Ratio Ki (Homo sapiens [10])
c1ccc(Oc2ncccc2COCCN2CCCN(CC3COc4ccccc4O3)CC2)cc1 (stereo not drawn) | 28 | 26 | 69.5 | 2.5 | 66.1 | 275 | 6.8 | 132 | 41 | 19
c1ccc(Oc2ncccc2-c2noc(CN3CCCN(CC4COc5ccccc5O4)CC3)n2)cc1 (stereo not drawn) | 8 | 23 | 15.3 | 1.9 | 44.8 | 15.4 | 1.7 | 5.2 | 9 | 3
c1ccc(CN2CCN(CC3COc4ccccc4C3)CC2)cc1 (stereo not drawn) |  |  | > 500 | > 500 | > 500 |  |  |  |  | 

Further lines, results first:

Ratio Ki (Homo sapiens [1]) | Ratio Ki (Homo sapiens [2]) | Ki [3] [nM] | Ki [4] [nM] | Ki [5] [nM] | Ki [6] [nM] | Ki [7] [nM] | Ki [8] [nM] | Ratio Ki (Homo sapiens [9]) | Ratio Ki (Homo sapiens [10]) | Compound
3 | 9 | 8 | 3 | 27 |  |  |  |  |  | O=C(NCCN1CCN(CC2COc3ccccc3O2)CC1)c1cccnc1Oc1ccccc1 (stereo not drawn)
18 | 195 | 10.9 | 0.6 | 118 | 48.4 | 3.8 | 14.1 | 13 | 4 | CCCCOc1cccc(C(=O)NCCN2CCCN(CC3COc4ccccc4O3)CC2)n1 (stereo not drawn)
1 | 28 | 17.9 | 15.7 | 443 |  |  |  |  |  | O=C(NCCN1CCCN(CC2COc3ccccc3O2)CC1)c1cccnc1 (stereo not drawn)
13 | 103 | 10.5 | 0.8 | 81 | 73.6 | 4.8 | 13.3 | 15 | 3 | CCCCOc1ncccc1C(=O)NCCN1CCCN(CC2COc3ccccc3O2)CC1 (stereo not drawn)
